PubChem BioAssay AID248 (DTP/NCI, 2004)
Several values for one entry are separate records, joined by “and”; a condition that tells them apart may be missing. Equal values may be shown once. Inconclusive results and toxic doses are left out. No stated cut-off is given here; in the data, active means T/C of 150% or more; inactive means T/C below 125%.

Tested on: L1210 leukemia ip in BDF1 mice, survival T/C
Assay: NCI In Vivo Anticancer Drug Screen. Data for tumor model L1210 Leukemia (intraperitoneal) in B6D2F1 (BDF1) mice
Settings: endpoint: mean survival time, higher = longer survival
Method in brief: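 Read-out is survival time, reported as the treated-group measurement over the vehicle-control measurement.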

[1] = dose: 100.0 mg/kg/injection, schedule: Q04DX003 (ip), vehicle: saline with Tween-80
[2] = dose: 200.0 mg/kg/injection, schedule: Q04DX003 (ip), vehicle: saline with Tween-80
[3] = dose: 100.0 mg/kg/injection, schedule: Q04DX003 (ip), vehicle: saline
[4] = dose: 200.0 mg/kg/injection, schedule: Q04DX003 (ip), vehicle: saline
[5] = dose: 400.0 mg/kg/injection, schedule: Q04DX003 (ip), vehicle: saline

Measured: T/C

NNC(=O)c1ccccn1
inactive: dose: 50.0 mg/kg/injection, schedule: Q01DX001 (ip), vehicle: water 98 % of control | dose: 75.0 mg/kg/injection, schedule: Q01DX001 (ip), vehicle: water 98 % of control | dose: 100.0 mg/kg/injection, schedule: Q01DX009 (ip), vehicle: water 97 % of control | dose: 150.0 mg/kg/injection, schedule: Q01DX001 (ip), vehicle: water 102 % of control

CNC(=S)N/N=C/c1ccc(N(C)CCC#N)cc1
inactive: dose: 100.0 mg/kg/injection, schedule: Q01DX009 (ip), vehicle: Klucel (hydroxypropylcellulose) (HPC) 96 % of control | dose: 200.0 mg/kg/injection, schedule: Q01DX009 (ip), vehicle: Klucel (hydroxypropylcellulose) (HPC) 93 % of control

CC(C)OC(=O)Nc1ccc(Cl)cc1Cl
inactive: dose: 100.0 mg/kg/injection, schedule: Q04DX003 (ip), vehicle: Klucel (hydroxypropylcellulose) (HPC) 97 % of control | dose: 200.0 mg/kg/injection, schedule: Q04DX003 (ip), vehicle: Klucel (hydroxypropylcellulose) (HPC) 108 % of control | dose: 400.0 mg/kg/injection, schedule: Q04DX003 (ip), vehicle: Klucel (hydroxypropylcellulose) (HPC) 108 % of control

Cc1noc2c1CCCC2
inactive: dose: 100.0 mg/kg/injection, schedule: Q04DX003 (ip), vehicle: carboxymethylcellulose (CMC) 103 % of control | dose: 200.0 mg/kg/injection, schedule: Q04DX003 (ip), vehicle: carboxymethylcellulose (CMC) 106 % of control

CCP(=S)(CC)CCCCP(=S)(CC)CC
inactive: dose: 100.0 mg/kg/injection, schedule: Q01DX009 (ip), vehicle: saline with Tween-80 94 % of control | dose: 200.0 mg/kg/injection, schedule: Q01DX009 (ip), vehicle: saline with Tween-80 89 % of control | dose: 400.0 mg/kg/injection, schedule: Q01DX009 (ip), vehicle: saline with Tween-80 86 % of control

Cc1ccc(SNc2ccccc2)cc1
inactive: [1] 92 % of control | [2] 100 % of control

OC1(C2CCC(C(F)(F)F)CC2)C2C=CC1CC2 (configuration not stated)
inactive: dose: 75.0 mg/kg/injection, schedule: Q04DX002 (ip), vehicle: Klucel (hydroxypropylcellulose) (HPC) 93 % of control | dose: 150.0 mg/kg/injection, schedule: Q04DX002 (ip), vehicle: Klucel (hydroxypropylcellulose) (HPC) 93 % of control | dose: 300.0 mg/kg/injection, schedule: Q04DX002 (ip), vehicle: Klucel (hydroxypropylcellulose) (HPC) 100 % of control

CC(C)(Cl)N=Nc1ccc([N+](=O)[O-])cc1[N+](=O)[O-]
inactive: [1] 96 % of control | [2] 98 % of control | dose: 400.0 mg/kg/injection, schedule: Q04DX003 (ip), vehicle: saline with Tween-80 88 % of control

CC(=O)NC1C(OCc2ccccc2)OC2COC(C)(C)OC2C1O (configuration not stated)
inactive: dose: 100.0 mg/kg/injection, schedule: Q01DX001 (ip), vehicle: saline with Tween-80 107 % of control | dose: 200.0 mg/kg/injection, schedule: Q01DX001 (ip), vehicle: saline with Tween-80 93 % of control | dose: 400.0 mg/kg/injection, schedule: Q01DX001 (ip), vehicle: saline with Tween-80 110 % of control

CC(=O)c1cccnc1
inactive: dose: 50.0 mg/kg/injection, schedule: Q01DX001 (ip), vehicle: saline 104 % of control | dose: 100.0 mg/kg/injection, schedule: Q01DX001 (ip), vehicle: saline 91 % of control | dose: 200.0 mg/kg/injection, schedule: Q01DX001 (ip), vehicle: saline 93 % of control

CCOC(=S)SCC#CCSC(=S)OCC
inactive: dose: 100.0 mg/kg/injection, schedule: Q04DX002 (sc), vehicle: olive oil, sesame oil, peanut oil 104 % of control | dose: 200.0 mg/kg/injection, schedule: Q04DX002 (sc), vehicle: olive oil, sesame oil, peanut oil 114 % of control | dose: 400.0 mg/kg/injection, schedule: Q04DX002 (sc), vehicle: olive oil, sesame oil, peanut oil 96 % of control

O=[N+]([O-])c1ccc(N/N=C/CC(O)CO)c([N+](=O)[O-])c1 (configuration not stated)
inactive: dose: 100.0 mg/kg/injection, schedule: Q01DX009 (ip), vehicle: saline 89 % of control | [3] 90 % of control | dose: 200.0 mg/kg/injection, schedule: Q01DX009 (ip), vehicle: saline 86 % of control | [4] 90 % of control | dose: 400.0 mg/kg/injection, schedule: Q01DX009 (ip), vehicle: saline 94 % of control | [5] 91 % of control

COc1cc(N(CCCl)CCCl)ccc1NC(=O)c1ccccc1
inactive: dose: 100.0 mg/kg/injection, schedule: Q01DX001 (ip), vehicle: other 98 % of control | dose: 200.0 mg/kg/injection, schedule: Q01DX001 (ip), vehicle: other 98 % of control | dose: 400.0 mg/kg/injection, schedule: Q01DX001 (ip), vehicle: other 109 % of control

CC(CO)(CO)N=Cc1cc(Cl)ccc1O
inactive: dose: 100.0 mg/kg/injection, schedule: Q01DX001 (ip), vehicle: carboxymethylcellulose (CMC) 91 % of control | dose: 200.0 mg/kg/injection, schedule: Q01DX001 (ip), vehicle: carboxymethylcellulose (CMC) 96 % of control | dose: 400.0 mg/kg/injection, schedule: Q01DX001 (ip), vehicle: carboxymethylcellulose (CMC) 109 % of control

C[CH2][Pb]([CH2]C)([CH2]C)[O]C(=O)c1ccc(N)cc1
inactive: dose: 0.75 mg/kg/injection, schedule: Q01DX009 (ip), vehicle: Klucel (hydroxypropylcellulose) (HPC) 91 % of control | dose: 1.5 mg/kg/injection, schedule: Q01DX009 (ip), vehicle: Klucel (hydroxypropylcellulose) (HPC) 100 % of control | dose: 3.0 mg/kg/injection, schedule: Q01DX009 (ip), vehicle: Klucel (hydroxypropylcellulose) (HPC) 100 % of control | dose: 6.0 mg/kg/injection, schedule: Q01DX009 (ip), vehicle: Klucel (hydroxypropylcellulose) (HPC) 102 % of control | dose: 12.0 mg/kg/injection, schedule: Q01DX009 (ip), vehicle: Klucel (hydroxypropylcellulose) (HPC) 103 % of control | dose: 12.5 mg/kg/injection, schedule: Q04DX002 (ip), vehicle: Klucel (hydroxypropylcellulose) (HPC) 110 % of control | dose: 25.0 mg/kg/injection, schedule: Q04DX002 (ip), vehicle: Klucel (hydroxypropylcellulose) (HPC) 103 % of control

Cc1ccc(NC(=O)Nc2cccc3ccccc23)cc1
inactive: dose: 12.0 mg/kg/injection, schedule: Q01DX009 (ip), vehicle: gum acacia 108 % of control | dose: 12.5 mg/kg/injection, schedule: Q04DX003 (ip), vehicle: gum acacia 91 % of control | dose: 25.0 mg/kg/injection, schedule: Q01DX009 (ip), vehicle: gum acacia 103 % of control | dose: 25.0 mg/kg/injection, schedule: Q04DX003 (ip), vehicle: gum acacia 93 % of control | dose: 50.0 mg/kg/injection, schedule: Q01DX009 (ip), vehicle: gum acacia 94 % of control | dose: 50.0 mg/kg/injection, schedule: Q04DX003 (ip), vehicle: gum acacia 98 % of control

Nc1csc(N)n1
inactive: dose: 75.0 mg/kg/injection, schedule: Q04DX003 (ip), vehicle: saline 107 % of control | [3] 97 % of control | dose: 150.0 mg/kg/injection, schedule: Q04DX003 (ip), vehicle: saline 105 % of control | [4] 96 % of control | dose: 300.0 mg/kg/injection, schedule: Q04DX003 (ip), vehicle: saline 94 % of control | [5] 103 % of control

CCCCCCCC(=O)Oc1ccc([N+](=O)[O-])cc1
inactive: dose: 75.0 mg/kg/injection, schedule: Q01DX001 (ip), vehicle: saline 100 % of control | dose: 150.0 mg/kg/injection, schedule: Q01DX001 (ip), vehicle: saline 109 % of control | dose: 300.0 mg/kg/injection, schedule: Q01DX001 (ip), vehicle: saline 95 % of control

Cn1nnc(N/N=C/c2ccccc2)n1
inactive: dose: 6.25 mg/kg/injection, schedule: Q04DX003 (ip), vehicle: saline with Tween-80 100 % of control | dose: 12.5 mg/kg/injection, schedule: Q04DX003 (ip), vehicle: saline with Tween-80 107 % of control | dose: 25.0 mg/kg/injection, schedule: Q01DX009 (ip), vehicle: saline with Tween-80 94 % of control | dose: 25.0 mg/kg/injection, schedule: Q04DX003 (ip), vehicle: saline with Tween-80 94 % of control and 109 % of control | dose: 50.0 mg/kg/injection, schedule: Q04DX003 (ip), vehicle: saline with Tween-80 95 % of control | [1] 88 % of control

O=P(NCCCO)(OCc1ccccc1)N(CCCl)CCCl (configuration not stated)
inactive: dose: 62.5 mg/kg/injection, schedule: Q01DX010 (ip), vehicle: saline 87 % of control | dose: 125.0 mg/kg/injection, schedule: Q01DX010 (ip), vehicle: saline 98 % of control | dose: 250.0 mg/kg/injection, schedule: Q01DX010 (ip), vehicle: saline 90 % of control | dose: 250.0 mg/kg/injection, schedule: Q01DX Z (ip), vehicle: saline 95 % of control | dose: 500.0 mg/kg/injection, schedule: Q01DX Z (ip), vehicle: saline 95 % of control | dose: 750.0 mg/kg/injection, schedule: Q01DX Z (ip), vehicle: saline 118 % of control
